Measured values taken from patent US20180325793A1, “HIGH-PERFORMANCE COSMETIC PRODUCTS CONTAINING A POLYORGANOSILOXANE AND A DIPEPTIDE” (Evonik Degussa GmbH, priority 2014, published 2018).
Values after ≈ are worked out from the molar mass of the structure shown. Where a SMILES comes first, the peptide text is derived from it.

Assay: solubility in water at room temperature
Assay type: physicochemical
Source text: The two pairs DD/LL-methionylmethionine and DL/LD-methionylmethionine are diastereomeric relative to one another and have different physical data. […] These mixtures can be incorporated/dissolved simply in an aqueous phase or an aqueous surfactant phase of a cosmetic composition.

Compound	solubility at room temperature in water [mg/mL]
CSCC[C@H](NC(=O)[C@@H](N)CCSC)C(=O)O [DD/LL-methionylmethionine, methionylmethionine] (H-Met-Met-OH)	21.0 (≈ 74.9 mM)
CSCC[C@H](NC(=O)[C@@H](N)CCSC)C(=O)O [DL/LD-methionylmethionine, methionylmethionine] (H-Met-Met-OH)	0.4 (≈ 1.43 mM)
